{
  "source": "patent US4176180A",
  "about": "(priority 1977, dated 1979)",
  "key": {"[1]": {"system": "Diplococcus pneumoniae", "conditions": "gram positive cocci; cited from earlier work"}, "[2]": {"assay": "clinical", "conditions": "human, in vivo"}, "[3]": {"system": "Pasteurella multocida", "conditions": "gram negative bacilli; cited from earlier work"}, "[4]": {"system": "Str. non-groupable", "conditions": "gram positive cocci; cited from earlier work"}, "[5]": {"system": "Bacteroides fragilis", "conditions": "gram negative bacilli; cited from earlier work"}, "[6]": {"system": "Str. pyogenes", "conditions": "gram positive cocci; cited from earlier work"}, "[7]": {"system": "Staph. epidermidis", "conditions": "gram positive cocci; cited from earlier work"}, "[8]": {"system": "Corynebacterium diphteriae", "conditions": "gram positive bacilli; cited from earlier work"}, "[9]": {"system": "Plectridium tetani", "conditions": "gram positive bacilli; cited from earlier work"}, "[10]": {"system": "Neisseria menigitidis", "conditions": "gram negative cocci; cited from earlier work"}, "[11]": {"system": "Haemophilus influenzae", "conditions": "gram negative bacilli; cited from earlier work"}, "[12]": {"system": "Staph. aureus", "conditions": "gram positive cocci; cited from earlier work"}, "[13]": {"system": "Erysipelothrix insidiosa", "conditions": "gram positive bacilli; cited from earlier work"}, "[14]": {"conditions": "human, in vivo, 2 h"}, "[15]": {"system": "Brucella melitensis", "conditions": "gram negative bacilli; cited from earlier work"}, "[16]": {"system": "Str. faecalis", "conditions": "gram positive cocci; cited from earlier work"}, "[17]": {"system": "Neisseria gonorrhoeae", "conditions": "gram negative cocci; cited from earlier work"}, "[18]": {"system": "Bordetella pertussis", "conditions": "gram negative bacilli; cited from earlier work"}, "[19]": {"system": "Listeria monocytogenes", "conditions": "gram positive bacilli; cited from earlier work"}, "[20]": {"system": "Mycoplasma pneumoniae", "conditions": "mycoplasmae; cited from earlier work"}, "[21]": {"system": "Clostridium perfringens", "conditions": "gram positive bacilli; cited from earlier work"}, "[22]": {"assay": "serum concentration of erythromycin two hours after ethyl-succinyl erythromycin", "assay_type": "in vivo, human (ill persons)"}, "[23]": {"conditions": "in some patients, after prolonged treatment; cited from earlier work"}, "[24]": {"conditions": "Serum concentration of erythromycine, Average"}},
  "note": "Structures can show the parent of a compound that is named as a salt.",
  "data": [
    {"smiles": "CC[C@H]1OC(=O)[C@H](C)[C@@H](O[C@H]2C[C@@](C)(OC)[C@@H](O)[C@H](C)O2)[C@H](C)[C@@H](O[C@@H]2O[C@H](C)C[C@H](N(C)C)[C@H]2O)[C@](C)(O)C[C@@H](C)C(=O)[C@H](C)[C@@H](O)[C@]1(C)O", "note": "[E, erythromycin]", "values": [
      {"measurement": "MINIMUM INHIBITING CONCENTRATIONS", "setting": "[1]", "value": "0.01-0.2 […] MILILITER OF MEDIUM"},
      {"measurement": "Cmax", "setting": "[2]; Maximum concentrations of erythromycin, Average m", "value": 996, "unit": "ng/mL"},
      {"measurement": "concentration at 1 h", "setting": "[2]; [24]", "value": 321, "unit": "ng/mL"},
      {"measurement": "concentration at 1.5 h", "setting": "[2]; [24]", "value": 610, "unit": "ng/mL"},
      {"measurement": "concentration at 2 h", "setting": "[2]; [24]", "value": 988, "unit": "ng/mL"},
      {"measurement": "MINIMUM INHIBITING CONCENTRATIONS", "setting": "[3]", "value": "0.8 […] MILILITER OF MEDIUM"},
      {"measurement": "MINIMUM INHIBITING CONCENTRATIONS", "setting": "[4]", "value": "0.02-3.1 […] MILILITER OF MEDIUM"},
      {"measurement": "MINIMUM INHIBITING CONCENTRATIONS", "setting": "[5]", "value": "0.8-6.2 […] MILILITER OF MEDIUM"},
      {"measurement": "MINIMUM INHIBITING CONCENTRATIONS", "setting": "[6]", "value": "0.02-0.2 […] MILILITER OF MEDIUM"},
      {"measurement": "MINIMUM INHIBITING CONCENTRATIONS", "setting": "[7]", "value": "0.2-3.1 […] MILILITER OF MEDIUM"},
      {"measurement": "MINIMUM INHIBITING CONCENTRATIONS", "setting": "[8]", "value": "0.2-3.1 […] MILILITER OF MEDIUM"},
      {"measurement": "MINIMUM INHIBITING CONCENTRATIONS", "setting": "[9]", "value": "0.2-0.6 […] MILILITER OF MEDIUM"},
      {"measurement": "MINIMUM INHIBITING CONCENTRATIONS", "setting": "[10]", "value": "0.2-1.6 […] MILILITER OF MEDIUM"},
      {"measurement": "MINIMUM INHIBITING CONCENTRATIONS", "setting": "[11]", "value": "0.4-3.1 […] MILILITER OF MEDIUM"},
      {"measurement": "MINIMUM INHIBITING CONCENTRATIONS", "setting": "[12]", "value": "0.01-1.6 […] MILILITER OF MEDIUM"},
      {"measurement": "MINIMUM INHIBITING CONCENTRATIONS", "setting": "[13]", "value": "0.06 […] MILILITER OF MEDIUM"},
      {"measurement": "Serum concentration of erythromycine, Average", "setting": "[14]", "value": 988, "unit": "ng/mL"},
      {"measurement": "MINIMUM INHIBITING CONCENTRATIONS", "setting": "[15]", "value": "0.3 […] MILILITER OF MEDIUM"},
      {"measurement": "MINIMUM INHIBITING CONCENTRATIONS", "setting": "[16]", "value": "0.6-3.1 […] MILILITER OF MEDIUM"},
      {"measurement": "MINIMUM INHIBITING CONCENTRATIONS", "setting": "[17]", "value": "0.04-0.4 […] MILILITER OF MEDIUM"},
      {"measurement": "MINIMUM INHIBITING CONCENTRATIONS", "setting": "[18]", "value": "0.2 […] MILILITER OF MEDIUM"},
      {"measurement": "MINIMUM INHIBITING CONCENTRATIONS", "setting": "[19]", "value": "0.2 […] MILILITER OF MEDIUM"},
      {"measurement": "MINIMUM INHIBITING CONCENTRATIONS", "setting": "[20]", "value": "0.004-0.016 […] MILILITER OF MEDIUM"},
      {"measurement": "MINIMUM INHIBITING CONCENTRATIONS", "setting": "[21]", "value": "0.1-0.2 […] MILILITER OF MEDIUM"}
    ]},
    {"smiles": "CCOC(=O)CCC(=O)O[C@H]1[C@H](O[C@@H]2[C@@H](C)[C@H](O[C@H]3C[C@@](C)(OC)[C@@H](O)[C@H](C)O3)[C@@H](C)C(=O)O[C@H](CC)[C@@](C)(O)[C@H](O)[C@@H](C)C(=O)[C@H](C)C[C@@]2(C)O)O[C@H](C)C[C@@H]1N(C)C", "note": "[ES, ethyl-succinyl erythromycin]", "values": [
      {"measurement": "regularity of the serum concentrations obtained", "setting": "[22]; two hours following administration", "value": "irregularity in the serum concentrations obtained"},
      {"measurement": "Serum concentration of erythromycin, Total", "setting": "[22]; two hours following administration of 600 mg, sum over 9 persons", "value": 15360, "unit": "ng/mL"}
    ]},
    {"smiles": "CCC(=O)O[C@H]1[C@H](O[C@@H]2[C@@H](C)[C@H](O[C@H]3C[C@@](C)(OC)[C@@H](O)[C@H](C)O3)[C@@H](C)C(=O)O[C@H](CC)[C@@](C)(O)[C@H](O)[C@@H](C)C(=O)[C@H](C)C[C@@]2(C)O)O[C@H](C)C[C@@H]1N(C)C", "note": "[estolate, lauryl sulfate of the propionic ester of erythromycin]", "values": [
      {"measurement": "hepatotoxicity", "setting": "[23]", "value": "not inconsiderable hepatotoxicity"}
    ]}
  ]
}
